Consider one molecule from patent US20050208511A1, “DMBT1 as a clinical marker and uses thereof” (priority 2003, published 2005).

SMILES strings stand for the structures.

The subject of the test is endometrium. The test can be described thus: average endometrial thickness in treated monkeys. It is filed as in vivo, cynomolgus monkeys (Macaca fascicularis). The conditions noted are these: Intact/leuprolide (leuprolide for 40 days).

In the case of `CCNC(=O)[C@@H]1CCCN1C(=O)[C@H](CCCNC(=N)N)NC(=O)[C@H](CC(C)C)NC(=O)[C@@H](CC(C)C)NC(=O)[C@H](Cc1ccc(O)cc1)NC(=O)[C@H](CO)NC(=O)[C@H](Cc1c[nH]c2ccccc12)NC(=O)[C@H](Cc1c[nH]cn1)NC(=O)[C@@H]1CCC(=O)N1` [leuprolide], the “Endometrial Thickness (mm)” value was found to be 1.25 mm.
